The results in this text go back to patent US20120128754A1, “TREATMENT OF EYE DISCOMFORT BY TOPICAL ADMINISTRATION OF A COOLING AGENT TO THE EXTERNAL SURFACE OF THE EYELID” (priority 2009, published 2012).

Converted amounts (≈) assume the structure as drawn.

Series [1] is described as follows: Observed solubility in vehicle. The class given is physicochemical. Conditions: for solubility in 1 or 2% ethanol-water solution: higher concentrations not achievable without more ethanol. From the text:
Wei, 2008 describes delivery of cooling compounds to the skin using a towelette. The wiping of the towelette across skin results in delivery of dermatologically active ingredient(s), meaning that the skin is substantially medicated. […] An ethanol/water mixture with an ethanol concentration of about 5 wt % is required in order to dissolve enough of these compounds to provide a sufficient degree of cooling to relieve eye discomfort; however, at this concentration the ethanol is irritating to the eye surface.
(§1) 2-[((1R,2S,5R)-2-isopropyl-5-methyl-cyclohexanecarbonyl)-amino]-acetic acid 3-hydroxypropyl ester, referred to as CPS-160 (see, e.g., Wei, 2008) was synthesized and tested. […] Thus, CPS-160 was not considered to be an optimal cooling agent for practicing the invention.
(§2) It has a good safety profile because the expected hydrolysis products are the carboxylic acid and glycerol.
Thus, water solubility, as embodied in CPS-030, is a key factor for an ideal API.

Series [2] has as its system closed eyelids. Briefly: Eye wipe test: cooling sensations after wiping test solution over closed eyelids. Conditions: for quality of cooling sensation: CPS-369 1 and 2 mg/mL, CPS-160 2 mg/mL, CPS-030 1, 2, 4, 8 mg/mL; for cooling potency relative to CPS-030: in vivo. The class given is in vivo, human. As to the method:
The general procedure for testing was to weigh an active ingredient and to disperse it within a saline solution (i.e., Bausch & Lomb, Sensitive Eyes Plus Saline Solution) at stock concentrations of 10 to 20 mg/mL. Test solutions were further diluted with isotonic saline. For single assays, a 1 mL scaled pipette was used to dispense 0.8 to 1 mL of test solution onto a sterile 2″×2″ (5 cm×5 cm) pad, made of rayon-polyester formed fabric (Walgreens Sterile Gauze Pads) weighing on average 285±9 mg.
In the next trials, the wet pad was wiped twice over the closed eyelids of each eye from the medial to the lateral canthus. By subtraction, the loss of weight of the pad averaged 32±1 mg. Thus, each eye received ˜16 μL of the test solution per eye. For a 1 mg/mL solution this was equivalent to ˜16 μg per eye.
The presence of cooling sensations was recorded at 2 and 5 minutes after wiping and at 5 minute intervals thereafter. The intensity of the subjective eye sensation was rated as 0, 1, 2 or 3 with: 0 as no change; 1 as slight coolness or cold; 2 as clear-cut signal of coolness or cold; and 3 as comfortable and soothing sensations of cooling or cold. Recording was continued until two successive zeroes were obtained. The data were plotted using SigmaPlot™ (Systat Software, Point Richmond Calif.).
The results for compound CPS-030 are illustrated in FIG. 1, and reflect the averaged values of 6 to 8 separate trials in the same individual.
FIG. 1 is a graph of cooling intensity versus hours after application of CPS-030 with eye wipes for four dosages (128 μg, 64 μg, 32 μg, and 16 μg; per eye), and illustrates the dose-response data for CPS-030 on cooling sensations after application with eye wipes. The dose reported in μg is per eye, based on solutions of 1.0, 2.0, 4.0 and 8.0 mg of CPS-030 per mL of saline, applied in a volume of 16 μL per eye. […] Confirmatory trials of cooling action for CPS-030 were obtained in 4 individuals.

Series [3] in a line: Stability of test solutions stored at room temperature (retention of cooling activity). The format is physicochemical. Conditions: saline solution.
Excerpt: as §1, §2

The subject of series [4] is closed eyelids. Briefly: Case reports: eye wipe in subjects with eye strain or dry eyes syndrome. The class given is in vivo, human. As to conditions: person. As to the method:
A person routinely spent about 12 hour each day in front of a computer monitor and developed headaches and blurred vision. A visit to a general physician gave a diagnosis of eye strain, but the addiction to the computer monitor continued. The subject found some relief by putting a cold wet towel on their face, but the relief was only temporary. They volunteered to test an eye wipe containing 0.8 mL of a 4 mg/mL solution of CPS-030 and was given instructions on how to wipe the solution onto the eyelids with the eyes closed. […] During this time, the subject watched a basketball playoff game on television and noted that they could clearly distinguish scores on the 46 inch (117 cm) HDTV monitor which were previously indecipherable. For example, they could clearly see scores of 65 vs. 66, and of 98 vs. 99. […] The subject continues to use the eye wipes as an aid to their vision on an “as needed basis”, and the improved visual acuity is a reproducible event.
Their principal complaints were of dryness, itch, and discomfort at the corner of their eyes and blurred vision. These symptoms were present on a daily basis at various levels of intensity. […] It was not clear if they adhered to a strict regimen of self-administration, but they complained of the eye drops running down their cheeks and the expense of the medications. When the symptoms were severe, the subject found some relief by wetting their eyes with cold tap water, but the relief was only temporary. They volunteered to test an eye wipe containing 0.8 mL of a 4 mg/mL solution of CPS-030, and was given instructions on how to apply the solution onto the eyelids with the eyes shut.

Series [5] deals with closed eyelids. Briefly: Eye wipe test: cooling sensations after wiping test solution over closed eyelids. The class given is in vivo, human. As to conditions: for sensations accompanying cooling: 1 mg/mL in 1 or 2% ethanol-water, closed eyelids.
Setting [6] is: dry eyes syndrome, eye wipe 0.8 mL of 4 mg/mL.
The mark [7] stands for this setting: eye strain, eye wipe 0.8 mL of 4 mg/mL.

Consider `CC(C)[C@@H]1CC[C@@H](C)C[C@H]1C(=O)NCC(=O)OCCCO` [CPS-160, 2-[((1R,2S,5R)-2-isopropyl-5-methyl-cyclohexanecarbonyl)-amino]-acetic acid 3-hydroxypropyl ester], for which the “solubility in saline solution” value in series [1] was “solubilized in saline solution”. For the same molecule, in the series on closed eyelids [2] (2 mg/mL in saline, eye wipe), the duration of cooling entry was “approximately 0.6 hours”. The “quality of cooling sensation” value in the series on closed eyelids [2] (saline, eye wipe) was “Robust and refreshing cooling”. Further, the “stability of solution stored at room temperature” value in series [3] is “not stable and became inactive after 2 days”.

In the case of `CC(C)[C@@H]1CC[C@@H](C)C[C@H]1C(=O)OCC(O)CO` (stereo partly drawn) [Compound 1, (1R,2S,5R)-2-isopropyl-5-methyl-cyclohexanecarboxylic acid 2,3-dihydroxy-propyl ester], the “solubility in saline solution” value in series [1] was “miscible and solubilized in saline solution”. Also, the “symptomatic relief on as-needed use” value in the series with closed eyelids [4] (dry eyes syndrome, as needed for three months) was “expressed satisfaction at the relief of eye discomfort”. In addition, in the series with closed eyelids [4] (setting [6]), the “duration of cooling and soothing sensations” value is “at least 1 hour”; the “onset of cooling and soothing sensations” value is reported as “Within two minutes”; the sensations reported entry was “sensation of “wetness”, and a feeling of soothing and comfort”. Moreover, in the series with closed eyelids [4] (setting [7]), the “duration of cooling and soothing sensations” value was “at least two hours”; the “effect on visual acuity” value is “increase in visual acuity”; the “onset of cooling and soothing sensations” value is listed as “Within two minutes”. Besides, the sensations accompanying cooling entry in the series on closed eyelids [2] (32 μg, 64 μg and 128 μg per eye, saline, eye wipe) is “cooling was accompanied by a sensation of “wetness” and increased visual acuity”. Also, the “duration of eye refreshment” value in the series with closed eyelids [2] (4.0 mg/mL in saline, 16 μL per eye, sterile pad) is listed as “approximately 1 hour”. Further, the “sensations of sting, irritation or pain” value with closed eyelids [2] (all dosages tested (16-128 μg per eye)) is given as “no sensations of sting, irritation, or pain”. In addition, the “effective dose via eye wipe” value with closed eyelids [2] (delivered via a 2.0 mg/mL solution in an eye wipe) is about 32 μg/eye. The “quality of cooling sensation” value in the series with closed eyelids [2] (saline, eye wipe) was “Robust and refreshing cooling”. In series [3], the “stability of solution stored at room temperature” value is listed as “retained biological potency when stored at room temperature for at least three weeks”.

For `CC(C)[C@@H]1CC[C@@H](C)C[C@H]1C(=O)OCCOCCO` [Compound 2], the duration of cooling entry in the series on closed eyelids [2] (10 mg/mL, eye wipe) is “less than 30 minutes”. Moreover, the cooling intensity with closed eyelids [2] (10 mg/mL, eye wipe, scale 0-3) was under 2 coolness units.

As for `CC(C)[C@@H]1CC[C@@H](C)C[C@H]1C(=O)OCCO` [Compound 3], the adverse sensations entry in the series with closed eyelids [2] (higher two doses of 32 to 160 μg/eye range) is “brief period of warmth sensations on the eye surface and increased lachrymation”. Moreover, the “cooling potency relative to CPS-030” value with closed eyelids [2] is “about half the potency of CPS-030”.

Regarding `COC(=O)[C@@H](C)NC(=O)[C@@H]1C[C@H](C)CC[C@H]1C(C)C` [Compound 9], in series [1], the “solubility in 1 or 2% ethanol-water solution” value stood at 1000 µg/mL (≈ 3.71 mM). In addition, in the series with closed eyelids [2], the “cooling potency relative to CPS-030” value is reported as “more potent cooling activity than CPS-030”. The sensations accompanying cooling result in the series with closed eyelids [5] is listed as “without any sensations of wetness or increased visual acuity”.

`COC(=O)CNC(=O)[C@@H]1C[C@H](C)CC[C@H]1C(C)C` [Compound 10, reference compound]: the “solubility in 1 or 2% ethanol-water solution” value in series [1] is 1000 µg/mL (≈ 3.92 mM). Also, the “cooling potency relative to CPS-030” value in the series with closed eyelids [2] is reported as “more potent cooling activity than CPS-030”. Moreover, the sensations accompanying cooling result with closed eyelids [5] is given as “without any sensations of wetness or increased visual acuity”.

In the case of `CCOC(=O)[C@@H](C)NC(=O)[C@@H]1C[C@H](C)CC[C@H]1C(C)C` [Compound 12, (R)-2-[((1R,2S,5R)-2-isopropyl-5-methyl-cyclohexanecarbonyl)-amino]-propionic acid ethyl ester], the duration of cooling result with closed eyelids [2] (1 mg/mL dispersed in saline, eye wipe) was “approximately 1.5 hours”; in the series with closed eyelids [2] (2 mg/mL in saline, eye wipe) it was about 2.5 h. Besides, the “quality of cooling sensation” value in the series with closed eyelids [2] (saline, eye wipe) was “Robust and refreshing cooling”. The “side-effect when eyelids get wet after testing” value in the series with closed eyelids [2] (solid dispersed in saline, 1 and 2 mg/mL) is recorded as “the cooling sensations returned, sometimes with an intensity that could cause discomfort”. The cooling sensation entry in the series with closed eyelids [5] (30 mg in 0.1 mL ethanol + 7.4 mL glycerol + 7.5 mL water) is “Mild and persistent cooling”.
